{"source": "patent US11266599B2", "about": "“Inhalable dry powder cytidine analogue composition and method of use as a treatment for cancer” (Lovelace Biomedical Research Institute, priority 2018, dated 2022)", "key": {"[1]": {"assay": "Pharmacokinetics study of systemic, inhaled aqueous and inhaled dry powder 5AZA, with and without THU", "assay_type": "in vivo, Sprague Dawley rat", "details": "THU 80 mg/kg oral", "method": "The 5AZA aerosol was delivered into the lungs of rats using a nose only inhalation delivery system in which a 5AZA dry powder formulation and a 5AZA aqueous formulation aerosol is generated with a rotating brush generator or Pari nebulizer, respectively. […] At each time-point, systemic blood was collected into K3EDTA tubes for separation into plasma and lung, liver, and brain tissue was snap frozen in liquid nitrogen. Plasma and lung tissue samples were assayed via a liquid chromatography mass spectrometry assay and the average concentration versus time profile modeled with non-compartmental analysis."}, "[2]": {"details": "rats, intravenous 200 mg/kg for a month; cited from earlier work"}, "[3]": {"details": "room temperature; cited from earlier work"}, "[4]": {"system": "PD-L1", "details": "LC cell lines, in vitro; cited from earlier work"}, "[5]": {"system": "xenografts of human LC-derived cell lines", "details": "Rowett nude rat, systemic intraperitoneal injection, reference 29; cited from earlier work"}}}
{"smiles": "O=C1NC(O)CCN1[C@@H]1O[C@H](CO)[C@@H](O)[C@H]1O", "note": "(stereo partly drawn) [THU, tetrahydrouridine]", "values": [{"measurement": "effect of addition of THU on PK profile of the dry powder formulation in brain", "setting": "[1]", "value": "greatly improved"}, {"measurement": "effect of addition of THU on lung PK of 5AZA", "setting": "[1]", "value": "did not influence"}]}
{"smiles": "C[S+](C)[O-]", "note": "[DMSO]", "values": [{"measurement": "toxicity", "setting": "[2]", "value": "no toxicity"}]}
{"smiles": "Nc1ncn([C@H]2C[C@H](O)[C@@H](CO)O2)c(=O)n1", "note": "[DAC, 5-aza-2′-deoxyazacytidine]", "values": [{"measurement": "stability in aqueous solution", "setting": "[3]", "value": "relatively unstable"}]}
{"smiles": "Nc1ncn([C@@H]2O[C@H](CO)[C@@H](O)[C@H]2O)c(=O)n1", "note": "[5AZA, 4-amino-1-β-D-ribofuranosyl-1,3,5-triazin-2(1H)-one]", "values": [{"measurement": "expression of PD-L1", "setting": "[4]", "value": "increased"}, {"measurement": "reduction of tumor burden / suppression of tumor growth", "setting": "[5]", "value": 31, "unit": "%"}]}
